How the values were obtained:
APE1 [1] = molecular target: T1, APE1 (Homo sapiens, UniProt P27695); test: qHTS fluorogenic AP site incision assay (TAMRA/BHQ-2 red substrate, 1536-well); type: biochemical; settings: 50 nM substrate, 0.75 nM APE1; read-out: qHTS IC50 (primary screen, APE1)
T1 construct: made in house
Protocol: Recombinant human APE1 and E. coli EndoIV were purified as previously described. Deoxyoligonucleotides containing a tetrahydrofuran (THF) AP site analog, carboxytetramethyl rhodamine (TAMRA), or Black Hole Quencher-2 (BHQ-2), as appropriate (see Figure 1), were purchased from Biosearch Technologies, Inc., (Novato, CA). To create double-stranded DNA substrates, equal volumes of 200 µM solutions of the respective strands in reaction buffer were mixed and incubated at 95°C for 5 min. The annealing mixture was allowed to cool gradually to room temperature. Annealing and assay experiments were performed in the following buffer: 50 mM Tris pH 7.5, 25 mM NaCl, 2 mM MgCl2, 1 mM DTT, 0.01% Tween-20.
Initial optimizations were carried out in 384-well format at a 40 µL total reaction volume. Briefly, 30 µL of APE1 were pipetted into the plate and incubated at room temperature for 10 min; subsequently, 10 µL of substrate were added to start the reaction. The final assay concentrations of the enzyme and substrate were 0.75 nM and 50 nM, respectively. Kinetic fluorescence data were collected on a ViewLux high-throughput CCD imager (Perkin Elmer, Waltham, MA) equipped with standard FITC (excitation filter 480 nm and emission filter 530 nm) or BODIPY (excitation filter 525 nm and emission filter 598 nm) optics.
Three µl of reagents (buffer in columns 3 and 4 as negative control and APE1 in columns 1, 2, 5–48) were dispensed into a 1536-well plate. Compounds (DMSO solutions) and control (DMSO only) (23 nL) were transferred via Kalypsys pintool equipped with 1536-pin array. The plate was incubated for 15 min at room temperature, and then 1 µL of substrate (50 nM final concentration) was added to start the reaction. Library plates were screened from the lowest to highest concentration.
Screening data were corrected and normalized, and concentration–effect relationships were derived by using in-house developed, publicly available algorithms (http://www.ncgc.nih.gov/pub/openhts/curvefit/). Percent activity was computed after normalization against the uninhibited, or neutral, control (64 wells, entire columns 1 and 2) and the no-enzyme, or 100% inhibited, control (64 wells, entire columns 3 and 4), respectively. A four parameter Hill equation was fitted to the concentration-response data by minimizing the residual error between the modeled and observed responses.

APE1 [2] = molecular target: T1, APE1; test: Radiotracer (32P, gel-based) incision assay; type: biochemical; settings: for IC50: range of inhibitor concentrations, data not shown, read-out: approximate IC50 in radiotracer assay
[3] = molecular target: unlabeled double-stranded DNA substrate; test: ThO dye-displacement assay (DNA binding); settings: 50 nM DNA, 250 nM ThO
E. coli EndoIV = molecular target: T2, E. coli EndoIV (Escherichia coli, UniProt P0A6C1); test: E. coli Endonuclease IV (EndoIV) profiling assay; type: biochemical; settings: for IC50: 2 nM EndoIV, 50 nM substrate, read-out: Endo IV IC50 (E. coli EndoIV profiling)
T2 construct: made in house
Protocol: EndoIV enzyme and substrate (same as that used with APE1) optimization tests were initially performed at a 40 µL final volume in a 384-well format. Reaction concentrations of 2 nM EndoIV and 50 nM DNA substrate were selected for subsequent experiments. For running the assay in 1536-well format, the same protocol as described for APE1 above was followed.

[4] = system: AP site cleavage activity of HEK 293T whole cell extract; test: Whole cell extract AP endonuclease activity assay (HEK 293T); type: biochemical, human; settings: inhibitor at 100 µM
Protocol: (§1) The radiotracer assay was performed essentially as described. In brief, prioritized candidate inhibitor compounds from the qHTS assay were incubated at various concentrations (100 µM data shown) with APE1 (100 pg) at room temperature for 15 min in 25 mM Tris pH 7.5, 25 mM NaCl, 1 mM MgCl2, 1 mM DTT and 0.01% Tween-20. At that time, 0.5 pmol ^32P-radiolabeled THF-containing 34 mer double-stranded DNA substrate was added. Incision reactions were then carried out immediately at 37°C for 10 min in a final volume of 10 µL. After the addition of an equal volume of stop buffer (0.05% bromophenol blue and xylene cynol, 20 mM EDTA, 95% formamide), the radiolabeled substrate and product were separated on a standard polyacrylamide denaturing gel and quantified by phosphorimager analysis.
(§2) HEK 293T or HeLa cells – maintained in DMEM with 10% fetal bovine serum and 1% Penicillin-Streptomycin – were harvested, washed with 1× PBS, re-suspended in cold 222 mM KCl, incubated on ice for 30 min, and clarified by centrifugation at 12,000×g for 15 min at 4°C [23]. The supernatant (whole cell extract) was retained, the protein concentration determined using the Bio-Rad Bradford reagent, and aliquots were stored at −80°C. AP endonuclease activity assays were performed with or without candidate inhibitor compounds as described above, except 60 ng HEK 293T or 80 ng of HeLa whole cell extract was used.

[5] = system: AP site cleavage activity of HeLa whole cell extract; test: Whole cell extract AP endonuclease activity assay (HeLa); type: biochemical, human; settings: inhibitor at 100 µM
Protocol: as §1, §2

HeLa cells [6] = test: AP site measurement in chromosomal DNA; type: cell-based, human; settings: for AP site damage, inhibitor alone: 5 µM inhibitor alone, relative to control cells; for AP site damage, inhibitor plus MMS: 5 µM inhibitor plus MMS
Protocol: HeLa cells were treated as above, except only at 5 µM inhibitor where indicated. Following exposure, chromosomal DNA was isolated and steady-state AP site levels were measured using the DNA Damage Quantification Kit from Dojindo Molecular Technologies, Inc. (Gaithersburg, MD) as previously described.

[7] = set-up: method as in PMID 7019686; settings: cited from earlier work
HeLa cells [8] = test: Cell-based colony survival assay with MMS; set-up: species or system human; settings: HeLa colony formation, 0.25 mM MMS, 1 or 5 µM inhibitor
Protocol: To measure colony survival, HeLa cells were plated in 6-well plates 12–20 hr prior to treatment. Cells were treated as follows: (i) exposed only to control medium, (ii) exposed to 0.25 mM MMS alone for 1 hr, (iii) exposed to 1 or 5 µM of the indicated inhibitor compound alone for 4 hr, or (iii) exposed to inhibitor compound alone for 3 hr and then with MMS for an additional 1 hr at 37°C. Following treatment, cells were washed once with 1× PBS and incubated in regular maintenance media (DMEM, 10% FBS) at 37°C for 10–15 days. Colonies formed were fixed in methanol, stained in methylene blue (Sigma), and counted to determine percent survival relative to the untreated controls.

[9] = set-up: method as in PMID 18042731; settings: cited from earlier work

T1 sequence (P27695 whole entry): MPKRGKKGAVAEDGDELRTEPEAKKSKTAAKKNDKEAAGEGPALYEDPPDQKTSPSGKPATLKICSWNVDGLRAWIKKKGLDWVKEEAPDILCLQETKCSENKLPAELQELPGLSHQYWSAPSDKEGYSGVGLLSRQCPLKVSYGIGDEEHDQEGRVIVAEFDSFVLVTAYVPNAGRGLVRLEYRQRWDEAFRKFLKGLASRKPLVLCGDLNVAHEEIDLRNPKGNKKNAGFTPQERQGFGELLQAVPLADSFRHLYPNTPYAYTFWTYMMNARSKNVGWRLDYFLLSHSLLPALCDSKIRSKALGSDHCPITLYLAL

Structure (SMILES) | IC50 (APE1 [1]) | IC50 (APE1 [2]) | IC50 [3] | activity against EndoIV compared with APE1 (in words) (E. coli EndoIV) | IC50 (E. coli EndoIV) | inhibition of total AP site cleavage activity [4] | inhibition of total AP site cleavage activity [5] | AP site damage, inhibitor alone (HeLa cells [6]) | AP site damage, inhibitor plus MMS (HeLa cells [6]) | mutagenesis in the Ames Test [7] | Gel: inhibition detected or not in radiotracer incision assay (APE1 [2]; APE1, 32P-labeled THF substrate) | percent cell killing, MMS plus inhibitor relative to alkylator or inhibitor alone (HeLa cells [8]) | outcome in cell-based experiments [9]
O=c1c(O)c(-c2cc(O)c(O)c(O)c2)oc2cc(O)cc(O)c12 [myricetin] | 0.32 µM | < 0.5 µM | 3.5 µM | completely inactive or weakly active | > 57 µM | ≥ 80% | ≥ 80% | increased AP site damage relative to the control cells | potentiated the genotoxic potential of MMS | promote mutagenesis | – | – | –
Nc1c(S(=O)(=O)O)cc(Nc2ccc(Nc3nc(Cl)nc(Nc4cccc(S(=O)(=O)O)c4)n3)c(S(=O)(=O)O)c2)c2c1C(=O)c1ccccc1C2=O [Reactive Blue 2] | 0.25 µM | < 0.5 µM | 8.9 µM | completely inactive or weakly active | 10 µM | ≥ 80% | ≥ 80% | increased AP site damage relative to the control cells | potentiated the genotoxic potential of MMS | – | Yes | greater than additive increase | –
O=C(O)c1cc[c]([Sb](=[O])([OH])[OH])cc1[N+](=O)[O-] [NSC-13755] | – | – | – | – | – | complete inhibition | complete inhibition | – | – | – | – | – | fail in cell-based experiments
